From PubChem BioAssay (NCI)
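Exposure lasted 48 hours, with cells grown in 96-well plates and compounds tested at five concentrations. GI50: concentration for 50% inhibition of growth. At the TGI there is no net growth.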

Tests used:
Assay in all cases: NCI anticancer screen, dose series, 48 h
[1] = test system: OVCAR-3 ovarian
[2] = test system: UACC-62 melanoma
[3] = test system: HOP-62 NSCLC
[4] = test system: NCI-H226 lung
[5] = test system: UO-31 renal
[6] = test system: ACHN renal
[7] = test system: SR leukemia
[8] = test system: HCT-15 colon
[9] = test system: SK-OV-3 ovarian
[10] = test system: MDA-MB-231 breast

What does the source list for Cc1ccc(/C=N/NC(=O)c2ccccc2Oc2ccccc2)o1?
GI50 [1]: 40.1 µM; TGI [1]: > 100 µM; GI50 [2]: 17.3 µM; TGI [2]: > 81.2 µM; GI50 [3]: 70.9 µM; TGI [3]: > 100 µM; GI50 [4]: 39.1 µM; TGI [4]: > 100 µM; GI50 [5]: 44.8 µM; TGI [5]: > 100 µM; GI50 [6]: 28.5 µM; TGI [6]: > 100 µM; GI50 [7]: 40 µM; TGI [7]: > 100 µM; GI50 [8]: 37.9 µM; TGI [8]: > 100 µM; GI50 [9]: 77.6 µM; TGI [9]: > 100 µM; GI50 [10]: 32.7 µM; TGI [10]: > 100 µM

What does the source list for COc1ccc(Cn2cc(COc3cc(/C=C/C(=O)c4cc(OC)c(OC)c(OC)c4)ccc3OC)nn2)cc1?
GI50 [1]: 2.62 µM; TGI [1]: 6.71 µM; GI50 [2]: 4.19 µM; TGI [2]: > 100 µM; GI50 [3]: 2.72 µM; TGI [3]: 7.97 µM; GI50 [4]: 2.91 µM; TGI [4]: 83.1 µM; GI50 [5]: 4.71 µM; TGI [5]: > 100 µM; GI50 [6]: 4.47 µM; TGI [6]: > 100 µM; GI50 [7]: 2.7 µM; TGI [7]: > 100 µM; GI50 [8]: 2.76 µM; TGI [8]: > 100 µM; GI50 [9]: 3.02 µM; TGI [9]: 9.18 µM; GI50 [10]: 4.62 µM; TGI [10]: > 100 µM

What does the source list for N#C/C(=C\c1cc(O)c(O)c(O)c1)C(N)=O?
TGI [1]: > 100 µM; TGI [2]: > 100 µM; TGI [3]: > 100 µM; TGI [4]: > 100 µM; TGI [5]: > 100 µM; TGI [6]: > 100 µM; TGI [7]: > 92.3 µM; TGI [8]: > 100 µM; TGI [9]: > 100 µM; TGI [10]: > 100 µM

CN1CCN(CCCNC(=O)c2c3c(n4ccccc24)C(=O)c2ncccc2C3=O)CC1 was tested. Which GI50 [1] did it give?
The GI50 was 0.4 µM.

What about the TGI [1] of the same compound?
The TGI was 3.53 µM.

And the GI50 [2]?
Its GI50 is 0.764 µM.

And the TGI [2]?
The TGI was 3 µM.

And the GI50 [3]?
Its GI50 is 0.966 µM.

And the TGI [3]?
Its TGI is 13.5 µM.

And the GI50 [4]?
The GI50 was 2.67 µM.

What about the TGI [4] of the same compound?
Its TGI is 14.1 µM.

And the GI50 [5]?
The GI50 was 1.81 µM.

What about the TGI [5] of the same compound?
Its TGI is 30.7 µM.

What about the GI50 [6] of the same compound?
The GI50 was 0.866 µM.

And the TGI [6]?
The TGI was 5.49 µM.

And the GI50 [7]?
Its GI50 is 0.529 µM.

And the TGI [7]?
Its TGI is greater than 26.2 µM.

And the GI50 [8]?
The GI50 was 1.25 µM.

And the TGI [8]?
Its TGI is 8.47 µM.

What about the GI50 [9] of the same compound?
The GI50 was 3.46 µM.

And the TGI [9]?
The TGI was 19.6 µM.

And the GI50 [10]?
Its GI50 is 1 µM.

And the TGI [10]?
Its TGI is greater than 80 µM.

What does the source list for O=C(Oc1ccccc1)N(c1ccccc1)c1ccccc1?
GI50 [1]: 23.7 µM; TGI [1]: > 100 µM; GI50 [2]: 22.3 µM; TGI [2]: > 100 µM; GI50 [3]: 32.2 µM; TGI [3]: > 100 µM; GI50 [4]: 33.7 µM; TGI [4]: > 100 µM; GI50 [5]: 15 µM; TGI [5]: > 100 µM; GI50 [6]: 28.8 µM; TGI [6]: > 100 µM; GI50 [7]: 29 µM; TGI [7]: > 100 µM; GI50 [8]: 31.1 µM; TGI [8]: > 100 µM; GI50 [9]: 47.3 µM; TGI [9]: > 100 µM; GI50 [10]: 28 µM; TGI [10]: > 100 µM

For C/C(=N\NC(=O)c1ccncc1)c1sc(-n2nc(-c3ccccc3)cc2-c2ccccc2)nc1C, which TGI [1] is on record?
The TGI was greater than 31.6 µM.

What about the TGI [2] of the same compound?
The TGI was greater than 31.6 µM.

And the TGI [3]?
Its TGI is greater than 31.6 µM.

What about the TGI [4] of the same compound?
The TGI was greater than 100 µM.

What about the TGI [5] of the same compound?
Its TGI is greater than 31.6 µM.

And the TGI [6]?
The TGI was greater than 31.6 µM.

And the TGI [7]?
Its TGI is greater than 31.6 µM.

What about the TGI [8] of the same compound?
Its TGI is greater than 31.6 µM.

And the TGI [9]?
The TGI was greater than 31.6 µM.

What about the TGI [10] of the same compound?
The TGI was greater than 100 µM.

Cc1ccc(N)cc1[As]=[As]c1cc(N)ccc1C (stereo not given) was tested. Which GI50 [1] did it give?
Its GI50 is 1.62 µM.

What about the TGI [1] of the same compound?
The TGI was 3.02 µM.

And the GI50 [2]?
The GI50 was 1.51 µM.

And the TGI [2]?
The TGI was 3 µM.

What about the GI50 [3] of the same compound?
Its GI50 is 1.72 µM.

And the TGI [3]?
The TGI was 3.19 µM.

And the GI50 [4]?
The GI50 was 1.57 µM.

And the TGI [4]?
Its TGI is 3.07 µM.

What about the GI50 [5] of the same compound?
Its GI50 is 1.57 µM.

And the TGI [5]?
The TGI was 3.03 µM.

And the GI50 [6]?
The GI50 was 1.67 µM.

And the TGI [6]?
The TGI was 3.26 µM.

And the GI50 [7]?
Its GI50 is 0.944 µM.

And the TGI [7]?
Its TGI is greater than 25.1 µM.

What about the GI50 [8] of the same compound?
Its GI50 is 0.75 µM.

What about the TGI [8] of the same compound?
Its TGI is 2.24 µM.

And the GI50 [9]?
The GI50 was 3.59 µM.

What about the TGI [9] of the same compound?
Its TGI is 9.43 µM.

And the GI50 [10]?
Its GI50 is 1.35 µM.

And the TGI [10]?
The TGI was 2.82 µM.
